Reference: PubChem BioAssay (NCI)
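1) Cells in 96-well plates. 2) Compound, 48 h, 5 concentrations. 3) Linear interpolation between surrounding doses. 4) Unreached endpoint = highest concentration. Definition used: TGI = concentration required for complete inhibition of growth.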

Key:
Assay in all cases: inhibition of tumour cell growth, NCI panel, 48 h
786-0 renal = tested on: 786-0 renal
A498 renal = tested on: A498 renal
A549 NSCLC = tested on: A549 NSCLC
ACHN renal = tested on: ACHN renal
BT-549 breast = tested on: BT-549 breast
CAKI-1 renal = tested on: CAKI-1 renal
CCRF-CEM leukemia = tested on: CCRF-CEM leukemia
COLO 205 colon = tested on: COLO 205 colon
DU-145 prostate = tested on: DU-145 prostate
EKVX NSCLC = tested on: EKVX NSCLC
HCC-2998 colon = tested on: HCC-2998 colon
HCT-116 colon = tested on: HCT-116 colon
HCT-15 colon = tested on: HCT-15 colon
HL-60(TB) leukemia = tested on: HL-60(TB) leukemia
HOP-62 NSCLC = tested on: HOP-62 NSCLC
HS 578T breast = tested on: HS 578T breast
HT29 colon = tested on: HT29 colon
IGROV1 ovarian = tested on: IGROV1 ovarian
K-562 leukemia = tested on: K-562 leukemia
KM12 colon = tested on: KM12 colon
LOX IMVI melanoma = tested on: LOX IMVI melanoma
M14 melanoma = tested on: M14 melanoma
MALME-3M melanoma = tested on: MALME-3M melanoma
MCF7 breast = tested on: MCF7 breast
MDA-MB-231 breast = tested on: MDA-MB-231 breast
MDA-MB-435 = tested on: MDA-MB-435
MDA-N = tested on: MDA-N
MOLT-4 leukemia = tested on: MOLT-4 leukemia
NCI-H226 lung = tested on: NCI-H226 lung
NCI-H23 lung = tested on: NCI-H23 lung
NCI-H460 lung = tested on: NCI-H460 lung
NCI/ADR-RES ovarian = tested on: NCI/ADR-RES ovarian
OVCAR-3 ovarian = tested on: OVCAR-3 ovarian
OVCAR-4 ovarian = tested on: OVCAR-4 ovarian
OVCAR-5 ovarian = tested on: OVCAR-5 ovarian
OVCAR-8 ovarian = tested on: OVCAR-8 ovarian
PC-3 prostate = tested on: PC-3 prostate
RPMI-8226 leukemia = tested on: RPMI-8226 leukemia
RXF 393 renal = tested on: RXF 393 renal
SF-268 CNS = tested on: SF-268 CNS
SF-295 CNS = tested on: SF-295 CNS
SF-539 CNS = tested on: SF-539 CNS
SK-MEL-2 melanoma = tested on: SK-MEL-2 melanoma
SK-MEL-28 melanoma = tested on: SK-MEL-28 melanoma
SK-MEL-5 melanoma = tested on: SK-MEL-5 melanoma
SK-OV-3 ovarian = tested on: SK-OV-3 ovarian
SN12C renal = tested on: SN12C renal
SNB-19 CNS = tested on: SNB-19 CNS
SNB-75 CNS = tested on: SNB-75 CNS
SR leukemia = tested on: SR leukemia
SW-620 colon = tested on: SW-620 colon
T-47D breast = tested on: T-47D breast
TK-10 renal = tested on: TK-10 renal
U251 CNS = tested on: U251 CNS
UACC-257 melanoma = tested on: UACC-257 melanoma
UACC-62 melanoma = tested on: UACC-62 melanoma
UO-31 renal = tested on: UO-31 renal
HOP-92 NSCLC = tested on: HOP-92 NSCLC
NCI-H522 lung = tested on: NCI-H522 lung

Cc1nn(-c2ccccc2)c(C)c1/C=N/NC(=O)c1sc(=S)n(-c2ccc(Cl)cc2)c1N
TGI (786-0 renal): 59.9 µM | TGI (A498 renal): > 100 µM | TGI (A549 NSCLC): > 100 µM | TGI (ACHN renal): > 100 µM | TGI (BT-549 breast): > 100 µM | TGI (CAKI-1 renal): 9.68 µM | TGI (CCRF-CEM leukemia): > 100 µM | TGI (COLO 205 colon): 38.9 µM | TGI (DU-145 prostate): > 100 µM | TGI (EKVX NSCLC): 8.91 µM | TGI (HCC-2998 colon): 88.4 µM | TGI (HCT-116 colon): > 100 µM | TGI (HCT-15 colon): > 100 µM | TGI (HL-60(TB) leukemia): > 100 µM | TGI (HOP-62 NSCLC): > 100 µM | TGI (HS 578T breast): 7.6 µM | TGI (HT29 colon): > 100 µM | TGI (IGROV1 ovarian): 4.26 µM | TGI (K-562 leukemia): > 100 µM | TGI (KM12 colon): > 100 µM | TGI (LOX IMVI melanoma): 8.73 µM | TGI (M14 melanoma): > 100 µM | TGI (MALME-3M melanoma): > 100 µM | TGI (MCF7 breast): > 100 µM | TGI (MDA-MB-231 breast): > 100 µM | TGI (MDA-MB-435): > 100 µM | TGI (MDA-N): > 100 µM | TGI (MOLT-4 leukemia): > 100 µM | TGI (NCI-H226 lung): > 100 µM | TGI (NCI-H23 lung): > 100 µM | TGI (NCI-H460 lung): 95.1 µM | TGI (NCI/ADR-RES ovarian): > 100 µM | TGI (OVCAR-3 ovarian): > 100 µM | TGI (OVCAR-4 ovarian): 95.7 µM | TGI (OVCAR-5 ovarian): > 100 µM | TGI (OVCAR-8 ovarian): > 100 µM | TGI (PC-3 prostate): > 100 µM | TGI (RPMI-8226 leukemia): 7.73 µM | TGI (RXF 393 renal): 6 µM | TGI (SF-268 CNS): > 100 µM | TGI (SF-295 CNS): 5.37 µM | TGI (SF-539 CNS): > 100 µM | TGI (SK-MEL-2 melanoma): > 100 µM | TGI (SK-MEL-28 melanoma): > 100 µM | TGI (SK-MEL-5 melanoma): 26 µM | TGI (SK-OV-3 ovarian): > 100 µM | TGI (SN12C renal): > 100 µM | TGI (SNB-19 CNS): > 100 µM | TGI (SNB-75 CNS): 5.49 µM | TGI (SR leukemia): > 100 µM | TGI (SW-620 colon): > 100 µM | TGI (T-47D breast): > 100 µM | TGI (TK-10 renal): 14.4 µM | TGI (U251 CNS): > 100 µM | TGI (UACC-257 melanoma): > 100 µM | TGI (UACC-62 melanoma): 74.1 µM | TGI (UO-31 renal): 55.7 µM

COc1ccc(Cc2ccccc2C(=O)O)c2ccccc12
TGI (786-0 renal): > 100 µM | TGI (A498 renal): 57.9 µM | TGI (A549 NSCLC): > 100 µM | TGI (ACHN renal): > 100 µM | TGI (BT-549 breast): > 100 µM | TGI (CAKI-1 renal): > 100 µM | TGI (CCRF-CEM leukemia): 95.3 µM | TGI (COLO 205 colon): 34.5 µM | TGI (DU-145 prostate): > 100 µM | TGI (EKVX NSCLC): 98.9 µM | TGI (HCT-116 colon): 47.3 µM | TGI (HCT-15 colon): 92.4 µM | TGI (HL-60(TB) leukemia): 46 µM | TGI (HOP-62 NSCLC): > 100 µM | TGI (HOP-92 NSCLC): 61.9 µM | TGI (HS 578T breast): 57.8 µM | TGI (HT29 colon): > 100 µM | TGI (IGROV1 ovarian): 65.1 µM | TGI (K-562 leukemia): > 100 µM | TGI (KM12 colon): 42.9 µM | TGI (LOX IMVI melanoma): 54.4 µM | TGI (M14 melanoma): > 100 µM | TGI (MALME-3M melanoma): 59.3 µM | TGI (MCF7 breast): > 100 µM | TGI (MDA-MB-231 breast): > 100 µM | TGI (MDA-MB-435): 54.8 µM | TGI (MDA-N): 74.4 µM | TGI (NCI-H226 lung): > 100 µM | TGI (NCI-H23 lung): 67.3 µM | TGI (NCI-H460 lung): 38.9 µM | TGI (NCI-H522 lung): 55.4 µM | TGI (NCI/ADR-RES ovarian): > 100 µM | TGI (OVCAR-3 ovarian): 47.1 µM | TGI (OVCAR-4 ovarian): > 100 µM | TGI (OVCAR-5 ovarian): 59.6 µM | TGI (OVCAR-8 ovarian): > 100 µM | TGI (PC-3 prostate): > 100 µM | TGI (RPMI-8226 leukemia): > 100 µM | TGI (RXF 393 renal): > 100 µM | TGI (SF-268 CNS): 87.5 µM | TGI (SF-295 CNS): 93 µM | TGI (SK-MEL-2 melanoma): 54.5 µM | TGI (SK-MEL-28 melanoma): 64.2 µM | TGI (SK-MEL-5 melanoma): 32.9 µM | TGI (SK-OV-3 ovarian): > 100 µM | TGI (SN12C renal): > 100 µM | TGI (SNB-19 CNS): > 100 µM | TGI (SNB-75 CNS): > 100 µM | TGI (SR leukemia): > 100 µM | TGI (SW-620 colon): > 100 µM | TGI (T-47D breast): > 100 µM | TGI (TK-10 renal): 50.2 µM | TGI (U251 CNS): 89.3 µM | TGI (UACC-257 melanoma): 48.3 µM | TGI (UACC-62 melanoma): 29.9 µM | TGI (UO-31 renal): > 100 µM

CC(=O)Nc1ccc(C(=O)N[C@@H]2C(=O)N3[C@@H]2SC(C)(C)[C@@H]3C(=O)O)cn1
TGI (786-0 renal): > 100 µM | TGI (A498 renal): > 100 µM | TGI (A549 NSCLC): > 100 µM | TGI (ACHN renal): > 100 µM | TGI (BT-549 breast): > 100 µM | TGI (CAKI-1 renal): > 100 µM | TGI (CCRF-CEM leukemia): > 100 µM | TGI (COLO 205 colon): > 100 µM | TGI (DU-145 prostate): > 100 µM | TGI (EKVX NSCLC): > 100 µM | TGI (HCC-2998 colon): > 100 µM | TGI (HCT-116 colon): > 100 µM | TGI (HCT-15 colon): > 100 µM | TGI (HL-60(TB) leukemia): > 100 µM | TGI (HOP-62 NSCLC): > 100 µM | TGI (HOP-92 NSCLC): > 100 µM | TGI (HS 578T breast): > 100 µM | TGI (HT29 colon): > 100 µM | TGI (IGROV1 ovarian): > 100 µM | TGI (K-562 leukemia): > 100 µM | TGI (KM12 colon): > 100 µM | TGI (LOX IMVI melanoma): > 100 µM | TGI (M14 melanoma): > 100 µM | TGI (MALME-3M melanoma): > 100 µM | TGI (MCF7 breast): > 100 µM | TGI (MDA-MB-231 breast): > 100 µM | TGI (MDA-MB-435): > 100 µM | TGI (MDA-N): > 100 µM | TGI (MOLT-4 leukemia): > 100 µM | TGI (NCI-H226 lung): > 100 µM | TGI (NCI-H23 lung): > 100 µM | TGI (NCI-H460 lung): > 100 µM | TGI (NCI/ADR-RES ovarian): > 100 µM | TGI (OVCAR-3 ovarian): > 100 µM | TGI (OVCAR-4 ovarian): > 100 µM | TGI (OVCAR-5 ovarian): > 100 µM | TGI (OVCAR-8 ovarian): > 100 µM | TGI (PC-3 prostate): > 100 µM | TGI (RPMI-8226 leukemia): > 100 µM | TGI (RXF 393 renal): > 100 µM | TGI (SF-268 CNS): > 100 µM | TGI (SF-295 CNS): > 100 µM | TGI (SK-MEL-2 melanoma): > 100 µM | TGI (SK-MEL-28 melanoma): > 100 µM | TGI (SK-MEL-5 melanoma): > 100 µM | TGI (SK-OV-3 ovarian): > 100 µM | TGI (SN12C renal): > 100 µM | TGI (SNB-19 CNS): > 100 µM | TGI (SNB-75 CNS): > 100 µM | TGI (SW-620 colon): > 100 µM | TGI (T-47D breast): > 100 µM | TGI (TK-10 renal): > 100 µM | TGI (U251 CNS): > 100 µM | TGI (UACC-257 melanoma): > 100 µM | TGI (UACC-62 melanoma): > 100 µM | TGI (UO-31 renal): > 100 µM
